Data reported in patent publication US20150031761A1, “USE OF 5-AMINOLEVULINIC ACID AND DERIVATIVES IN A SOLID FORM FOR PHOTODYNAMIC TREATMENT AND DIAGNOSIS” (Photocure ASA, priority 2007, published 2015).

Test: Stress-study at 80° C. of HAL HCl with excipients, impurities by HPLC
Assay type: physicochemical
Set-up: key to level of impurity at relative retention time 0.8: **: An empty entry indicates no detectable levels
Details: 20 hours, relative to a pyrazine standard
Experimental: In order to get an indication of the stability of HAL in the presence of various excipients, a stress-study at 80° C. was performed. 100 mg HAL HCl+300 mg excipient (Poloxamer 188, Gelucire 44/14, Gelucire mixture (44/14:50/02=[…] w/w) and Miglyol 812 N) was mixed and the result after 20 hours was analysed by HPLC. The level of each impurity was calculated relative to a pyrazine standard.

level of impurity Pyrazine: 1.77% | level of impurity at relative retention time 0.8: ** | level of impurity at relative retention time 0.88: 0.46% | level of impurity at relative retention time 1.37: 0.03% | level of impurity at relative retention time 1.91: 0.35% | level of impurity at relative retention time 2.06: 0.16%
SMILES: CCCCCCOC(=O)CCC(=O)CN.Cl [HAL- HCl, Hexyl 5-aminolevulinate hydrochloride]
